Results: patent US9440926B2, “Antiviral compounds and methods” (Biotron Limited, priority 2005, dated 2016)
Read-outs that look alike come from different tables or passages of the source.

Experiments:
Type in all cases: cell-based
Vpu = target: T1, Vpu (Human immunodeficiency virus type 1 group M subtype B, UniProt P05919); experiment: Bacterial bioassay, Vpu; conditions: mean bacterial bioassay score; Vpu of HIV
T1 construct: expressed in transfected cells
Text: (§1) The bacterial bioassay method used in the present example to test the anti-viral activity of the compounds against different viral targets was described in detail in PCT/2004/000866, incorporated in its entirety herein by reference. Vpu, p7 and M referred to in the table are small membrane proteins encoded by HIV, HCV and Dengue viruses, respectively, which have functional activities supporting viral growth and/or replication.

HCV p7 = target: T2, HCV p7 (Hepatitis C virus genotype 1a, UniProt P27958); experiment: Bacterial bioassay, HCV p7; design: scale not given here; conditions: mean bacterial bioassay score; p7 of HCV
T2 construct: expressed in transfected cells
T2 sequence (P27958 747-809): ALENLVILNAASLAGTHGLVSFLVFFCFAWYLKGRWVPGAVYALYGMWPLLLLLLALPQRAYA
Text: as §1

Den M = target: T3, Den M (Dengue virus type 1, UniProt P33478); experiment: Bacterial bioassay, Den M; design: scale not given here; conditions: mean bacterial bioassay score; M protein of Dengue virus
T3 construct: expressed in transfected cells
T3 sequence (P33478 206-280): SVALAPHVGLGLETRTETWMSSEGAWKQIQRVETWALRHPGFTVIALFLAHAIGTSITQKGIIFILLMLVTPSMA
Text: as §1

HIV-1 strain Ba-L = experiment: HIV-1 Ba-L growth inhibition in primary macrophages (p24 ELISA); conditions: for IC50: Human immunodeficiency virus 1, BAL, Primary macrophage; for AI (Antiviral Index): calculated by formula from TC50 and IC50, HIV-1Ba-L in primary macrophages
Method: The inhibition specifically of HIV-1 growth by the compounds of the invention was tested in primary macrophages in vitro using a method similar to that used to assess antibody neutralization (VanCott T C et al (1999)). In the present case, the laboratory adapted HIV-1 strain Ba-L was used, which is known to infect macrophages.
Peripheral Blood Mononuclear Cells (PBMC) were prepared from healthy donors using buffy-coat packs obtained from the Australian Red Cross Blood Service (ARCBS). Blood was received the day following donation, and had been depleted of serum and platelets, leaving a small volume (less than 100 mL) of concentrated leukocytes.
Leukocytes were separated from blood cells and granulocytes by density gradient centrifugation (Ficoll Paque) and washed extensively in PBS^− (without Ca/Mg) to remove platelets. Recovered cells were allowed to adhere to plastic tissue culture flasks (Becton Dickinson) for 2 hr, 37° C., 5% CO2, in media (DMEM (high)/10% AB serum/50 ug/mL gentamicin/2 mM L-glutamine) during which time the myeloid cells formed an adherent monolayer leaving lymphocytes unattached.
Non-adherent lymphocytes were removed by washing with warm PBS^+ (with Ca/Mg) and were generally discarded. In some cases those cells were recovered and frozen in media/10% DMSO for use in viral stock infections. The adherent monocytes were recovered by scraping gently with a plastic cell scraper. The myeloid cells were then plated into 96-well plates at a cell concentration of 1.5×10^6/mL, and allowed to fully differentiate over a period of 14 days.
Macrophages were allowed to differentiate over a 14 day period, with media changes as required. On day 14, cells were infected in the presence of decreasing concentrations of BIT compounds over a range 0-10 μM. Samples of 25 μL culture supernatants were removed from each well on day 7 and fresh media plus compound dilution was added.
After 7 days the samples with and without compound were analysed to assess the level of virus present in the wells, using a p24 ELISA (Innotest). Virus levels in samples were converted to “percentage of control virus growth” values based on the controls (containing no compound). From that dose response curve (example FIG. 1) the IC50 was calculated and used as a measure of compound anti-HIV activity.

[1] = Cytotoxicity to cells in the viral inhibition assay (MTT assay); conditions: human, primary human macrophages, read-out: TC50 (the source's name)
Method: The toxicity of test compounds to cells in the viral inhibition assay was determined using the MTT assay (Pauwels R, et al. (1988); D'Cruz O J et al. (1999); Joo H. (2003)). This method utilises Thiazolyl Blue (MTT), which is added to the cell culture (100 ug/well), and incubated for 4-5 hours whilst the live, metabolically active cells convert the chemical to its purple coloured metabolite, which forms intracellular crystals. The purple colour is measured colourimetrically (570-590 nm) once cells have been permeabilised using acidified isopropanol containing 10% triton X-100. The most intense colour development occurs in wells where the metabolising cells are most numerous. […] Those values were estimated manually from the Percentage Viability vs Concentration dose response curves (FIG. 1). The compound toxicity to cells in culture was taken into account in inhibition experiments and in separate experiments involving increased concentrations of compound. TC50 values were estimated in separate experiments (not shown) where concentrations of compound were greater.

[2] = 168 h, against HIV-1Ba-L in primary macrophages, p24 ELISA after 7 days, estimated from dose response curves (FIG. 1), 0-10 μM, read-out: IC50
[3] = 50% cell viability, MTT assay, estimated in separate experiments at greater compound concentrations
[4] = additional compounds, same assay system (HIV-1Ba-L, primary macrophages), estimated from dose response curves, read-out: Estimated IC50
[5] = additional compounds, same assay system, MTT

T1 sequence (P05919 whole entry): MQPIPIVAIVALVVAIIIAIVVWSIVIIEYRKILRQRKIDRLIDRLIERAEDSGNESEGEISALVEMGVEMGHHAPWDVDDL

SMILES	Average Bacterial Assay Score, Vpu (Vpu)	Average Bacterial Assay Score, HCV p7 (HCV p7)	Average Bacterial Assay Score, Den M (Den M)	IC50 (HIV-1 strain Ba-L; [2]) [µM]	AI (Antiviral Index) (HIV-1 strain Ba-L)	CC50 [1, 3] [µM]	IC50 (HIV-1 strain Ba-L; [4]) [µM]	CC50 [1, 5] [µM]
N=C(N)NC(=O)C=Cc1cccc(Br)c1 [BIT067, (3-Bromocinnamoyl)guanidine, reference compound]	2.88	–	–	–	–	–	–	–
N=C(N)NC(=O)C=Cc1cc(Br)ccc1F [BIT124, 5-bromo-2-fluorocinnamoylguanidine, reference compound]	–	2.25	–	–	–	–	–	–
N=C(N)NC(=O)C=CC=Cc1ccccc1Br [BIT128, 5-(2′-bromophenyl)penta-2,4-dienoylguanidine, reference compound]	–	–	2.87	–	–	–	–	–
N=C(N)NC(=O)/C=C/c1cccc(C(=O)c2ccccc2)c1 [BIT216, (3-benzoyl)cinnamoylguanidine]	1.3	1.3	1.5	0.9	28-550	25 to 495	–	–
N=C(N)NC(=O)/C=C/c1cccc2c1OCO2 [BIT217, 2,3-methylenedioxycinnamoyl guanidine]	1.8	1.0	–	1.1	>91	> 100	–	–
Cc1cccc2cc(C(=O)NC(=N)N)ccc12 [BIT218, 5-methyl-2-napthoylguanidine]	1.8	1.7	1.3	1.56	>192	> 300	–	–
N=C(N)NC(=O)/C=C/c1cccc2c1CCC2 [BIT222, 3(indan-4-yl)-propenoylguanidine]	1.2	2.0	2.2	> 10	>10	> 100	–	–
COc1ccc2cc(C(=O)NC(=N)N)ccc2c1Br [BIT223, 5-bromo-6-methoxy-2-napthoylguanidine]	0	0.0	–	0.3	>1000	> 300	–	–
N=C(N)NC(=O)c1ccc2c(-c3ccsc3)cccc2c1 [BIT224, 5-thiophen-3-yl-2-naphthoylguanidine]	2.2	1.1	1.3	1	>100	> 200	–	–
Cn1cc(-c2cccc3cc(C(=O)NC(=N)N)ccc23)cn1 [BIT225, 5-(1-methylpyrazol-4-yl)2-naphthoylguanidine]	1.4	1.2	0.9	2.5	>80	> 200	–	–
N=C(N)NC(=O)C=Cc1ccc(Cl)c(Cl)c1 [BIT300, 3,4-dichlorocinnamoyl guanidine]	1.52	0.67	3.40	–	–	–	–	–
COc1c(C(=O)NC(=N)N)ccc2ccccc12 [BIT301, (1-methoxy-2-napthoyl)guanidine]	1.54	0.25	0.50	–	–	–	< 2.5	> 50
COc1cc2ccccc2cc1C(=O)NC(=N)N [BIT302, (3-methoxy-2-napthoyl)guanidine]	1.04	0.42	0.50	–	–	–	< 2.5	> 50
N=C(N)NC(=O)c1ccc2c(Br)cccc2c1 [BIT303, (5-bromo-2-napthoyl)guanidine]	0.22	0.00	2.10	–	–	–	< 2.5	10 to 50
COc1cc(C(=O)NC(=N)N)c(OC)c2ccccc12 [BIT304, (1,4-dimethoxy-2-napthoyl)guanidine]	0.62	0.33	1.90	–	–	–	< 10	10 to 50
CC(=O)O.Cn1cc(-c2ccc3cc(C(=O)NC(=N)N)ccc3c2)cn1 [BIT314, (6-(1-methylpryazol-4-yl)-2-napthoyl)guanidinium acetate]	0.00	3.30	1.60	–	–	–	–	–
COc1ccc(-c2cccc3cc(C(=O)NC(=N)N)ccc23)c(OC)n1 [BIT315, (5-(2,6-dimethoxypyridin-3-yl)-2-napthoyl)guanidine]	0.20	0.30	1.00	–	–	–	–	–
N=C(N)NC(=O)c1ccc2c(-c3ccccc3Cl)cccc2c1 [BIT316, (5-(2-chlorophenyl)-2-napthoyl)guanidine]	0.20	0.80	0.50	–	–	–	–	–
CC(=O)Nc1ccc(-c2cccc3cc(C(=O)NC(=N)N)ccc23)cc1 [BIT317, (5-(4-(acetylamino)phenyl)-2-napthoyl)guanidine]	0.00	0.20	0.40	–	–	–	–	–
CC(=O)Nc1cccc(-c2cccc3cc(C(=O)NC(=N)N)ccc23)c1 [BIT318, (5-(3-(acetylamino)phenyl)-2-napthoyl)guanidine]	2.00	0.30	0.35	–	–	–	–	–
CS(=O)(=O)Nc1ccc(-c2cccc3cc(C(=O)NC(=N)N)ccc23)cc1 [BIT319, (5-(4-((methylsulphonyl)amino)phenyl)-2-napthoyl)guanidine]	0.00	0.00	0.15	–	–	–	–	–
